From patent US7795427B2, “Methods for inhibiting osteoclast differentiation, formation, or function and for increasing bone mass” (New York University, priority 2006, dated 2010)
Entries after “also recorded” stand apart in the source; their conditions may differ.

What was measured:
PU.1 mRNA = assay: RT-PCR of PU.1 mRNA in osteoclast precursors; assay type: cell-based, mouse; conditions: DPCPX 1 μM, M-CSF and RANKL, 7 days
Excerpt: (§1) FIG. 7. […] I.D. NO: 21); c-Fos antisense [NT]. I.D. NO: 22); PU.1.- sense [NT]. I.D. NO: 23); PU.1 antisense [NT]. […] I.D. NO: 10).

osteoclast precursors = assay: Osteoclast formation with DPCPX added at different days of culture; assay type: cell-based, mouse
Protocol: FIG. 5. DPCPX Inhibits Osteoclastogenesis by Acting on Osteoclast Precursors. […] After culture for 7 days with DPCPX, cells were stained for TRAP. Results are expressed as the mean±SEM of three cultures per variable. […] TRAP is preferentially expressed at high levels in osteoclasts and is considered, especially in the mouse, to be an osteoclast marker. After incubation, cells on wells were washed in PBS, fixed in 4% paraformaldehyde for 10 min, and stained for acid phosphatase in the presence of 0.3 M sodium tartrate (Sigma-Aldrich). The substrate used was napthol AS-BI phosphate (Sigma-Aldrich). Only those cells that were strongly TRAP-positive (dark red) and have more than 3 nuclei were counted by light microscopy. To determine at which stage DPCPX inhibits osteoclast differentiation, osteoclast precursors were incubated with M-CSF, RANKL and DPCPX was added on day 0, 3 and 6. After culture for a total of 7 days with DPCPX, TRAP-positive multinucleated cells were enumerated.

[1] = test system: RANKL-induced NF-κB signaling; assay: RANKL-induced NF-κB signaling in osteoclast precursors (Western blot of cytoplasmic and nuclear fractions); assay type: cell-based, mouse; design: dose or concentration left out as unconfirmed; conditions: M-CSF and RANKL
c-Fos mRNA = assay: RT-PCR of c-Fos mRNA in osteoclast precursors; assay type: cell-based, mouse; conditions: DPCPX 1 μM, M-CSF and RANKL, 7 days
Excerpt: as §1

TRAF6 = TRAF6 level in cells under A1 receptor blockade (other studies, data not shown); assay type: cell-based; conditions: adenosine A1 receptors blocked by DPCPX (data not shown)
[2] = test system: ovariectomized C57BL/6 mice; assay: Bone loss due to ovariectomy (microCT); assay type: in vivo, mouse; conditions: OVX C57BL/6 mice, DPCPX 50 mg/kg/d oral in water, 5 weeks
Protocol: FIG. 12. Effects of the A1R Antagonist DPCPX on Bone Loss Due to Ovariectomy. […] Data are expressed as percent change relative to sham-operated vehicle-treated control mice. 6 Week old C57bl/6 female mice received ovariectomy or a sham procedure in which the ovaries were exteriorized but not removed. Mice were sacrificed 5 weeks after the surgical procedure. Mice were treated with either water alone or DPCPX dissolved in water and adjusted, based on the weight of the animals, to a dose of 50 mg/kg/d. Femoral μCT was measured as described (Hildebrand […] new method for the model-independent assessment of thickness in three-dimensional images. J Microsc 1997; 185:67-75) by using a MS-8 (MS-8, GE Healthcare, London, Ontario, Canada) at 18 μm isotropic resolution-scans calibrated by air, water and a mineral standard material phantom/Parker algorithm for digital reconstruction.

bone marrow cells = assay: RANKL-induced osteoclast formation from bone marrow cells (TRAP-positive MNC count); assay type: cell-based, mouse; conditions: for osteoclast formation: M-CSF and RANKL
Excerpt: FIG. 1. Effect of DPCPX on osteoclast formation by bone marrow cells. […] After 7 days cells were fixed and stained for TRAP, and the number of TRAP-positive MNCs per well was scored. (Similar results were obtained in three independent experiments). Bone marrow cells were isolated from 5- to 8-wk-old C57BL/6 female mice. Femurs and tibiae were aseptically removed and dissected free of adherent soft tissues. The bone ends were cut, and the marrow cavity was flushed out with medium αMEM from one end of the bone using a sterile 21-gauge needle. The bone marrow suspension was carefully agitated with a plastic Pasteur pipette to obtain a single-cell suspension. The cells were washed twice and resuspended (3.75×10^5 cells/ml) in α MEM containing 10% FBS, and this suspension was added to 24-well plates (500 μl/well). To each of these wells an additional 500 μl of medium containing M-CSF (30 ng/ml) and RANKL (30 ng/ml) without or with various concentrations of DPCPX and N6-CPA were added. Cultures were fed every 3 days by replacing 500 μl of culture medium with an equal quantity of fresh medium and reagents. After incubation for 7 days, wells were prepared for tartrate-resistant acid phosphatase (TRAP) staining. The number of TRAP-positive multinucleated cells (MNCs) containing three or more nuclei was scored. Osteoclast formation was evaluated by quantification of Tartrate-Resistant Acid Phosphatase (TRAP)-positive multinucleated cells (MNCs) using a modification of the method of Burstone. […] TRAP is preferentially expressed at high levels in osteoclasts and is considered, especially in the mouse, to be an osteoclast marker. After incubation, cells on wells were washed in PBS, fixed in 4% paraformaldehyde for 10 min, and stained for acid phosphatase in the presence of 0.3 M sodium tartrate (Sigma-Aldrich). The substrate used was napthol AS-BI phosphate (Sigma-Aldrich). Only those cells that were strongly TRAP-positive (dark red) and have more than 3 nuclei were counted by light microscopy.

murine splenocytes = assay: RANKL-induced osteoclast formation by splenocytes (TRAP-positive MNC count); assay type: cell-based, mouse; conditions: for osteoclast formation: M-CSF and RANKL
Protocol: FIG. 4. Effect of DPCPX on osteoclast formation by Splenocytes. […] After 7 days cells were fixed and stained for TRAP, and the number of TRAP-positive MNCs per well was scored. (Similar results were obtained in three independent experiments). Splenocytes were isolated from 5- to 8-wk-old C57BL/6 female mice aspreviously described with modification. In brief, spleens were putted on top of 100 μm cell strainer in 50 ml falcon, mashed with plunger and rinsed the released cells through the strainer with 8 ml PBS. The nonadherent cells were layered on top of the lymphocyte separation medium. The cells were spin 1500 rpm for 20 minutes. The macrophages/lymphocyte white band was located about 1 cm below the top of the LSM. The PBS was aspirated until 1 ml above the band then 1 ml was removing to 50 ml Falcon including the band. To this Falcon 19 ml PBS was added and spine 1500 rpm for 15 minutes. PBS was removed and 10 ml αMEM was added. The cells were resuspended (3×10^5 cells/ml) in αMEM containing 10% FBS, and this suspension was added to 24-well plates ([…]) as described above. […] TRAP is preferentially expressed at high levels in osteoclasts and is considered, especially in the mouse, to be an osteoclast marker. After incubation, cells on wells were washed in PBS, fixed in 4% paraformaldehyde for 10 min, and stained for acid phosphatase in the presence of 0.3 M sodium tartrate (Sigma-Aldrich). The substrate used was napthol AS-BI phosphate (Sigma-Aldrich). Only those cells that were strongly TRAP-positive (dark red) and have more than 3 nuclei were counted by light microscopy.

[3] = DPCPX 3 days (per FIG. 8 legend)
[4] = M-CSF and DPCPX without RANKL (data not shown)
[5] = increasing concentrations of DPCPX added day 0 with M-CSF and RANKL (30 ng/ml each), 7 days

CCCn1c(=O)c2[nH]c(C3CCCC3)nc2n(CCC)c1=O [DPCPX, 8-cyclopentyl-1,3-dipropylxanthine]
PU.1 mRNA expression (PU.1 mRNA): does not affect | osteoclast formation (osteoclast precursors; DPCPX added on day 0, total culture 7 days): inhibited | osteoclast formation (osteoclast precursors; DPCPX addition delayed (day 3, day 6), total culture 7 days): inhibition decreased | cytoplasmic p50 and p65 [1, 3]: accumulate in the cytoplasm | nuclear translocation of p50 and p65 [1, 3]: totally prevents | RANKL-induced degradation of IκB ([1]; DPCPX treatment for 3 days (per FIG. 8 legend)): inhibited | c-Fos mRNA expression (c-Fos mRNA): does not affect | TRAF6 in the cell (TRAF6): is lost from the cell | bone mass / trabecular bone volume (bone volume/total volume) following ovariectomy [2]: did not lose bone mass; also recorded: prevents ovariectomy-induced bone loss | osteoclast formation (bone marrow cells; DPCPX 1 nM, 7 days): significantly inhibit | osteoclast formation (bone marrow cells; DPCPX 1 μM, 7 days): complete inhibition | TRAP-positive cells in the absence of RANKL (bone marrow cells; [4]): no TRAP-positive cells were seen | number of TRAP-positive cells (bone marrow cells; [5]): strikingly inhibited the number of TRAP-positive cells in a dose-dependent manner | osteoclast formation (murine splenocytes; DPCPX 1 nM, 7 days): significantly inhibited | osteoclast formation (murine splenocytes; DPCPX 1 μM, 7 days): almost complete inhibition | TRAP-positive cells in the absence of RANKL (murine splenocytes; [4]): no TRAP-positive cells were seen | number of TRAP-positive multinucleated cells (murine splenocytes; [5]): strikingly diminished the number of TRAP-positive multinucleated cells in a dose-dependent manner
